Test results from patent publication US20240025893A1, “PYRIMIDINE-AND NITROGEN-CONTAINING BICYCLIC COMPOUND” (Asahi Kasei Pharma Corporation, priority 2020, published 2024).

What was measured:
[1] = system: LPS-stimulated TNFα production in THP-1 cells; test: LPS-stimulated TNFα production inhibition test using human acute monocytic leukemia cell strain THP-1; type: cell-based; conditions: Homo sapiens, THP-1, 4 h, LPS 2.5 ng/mL, average values
Method in brief: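 THP-1 cells were preincubated with compound for 1 h at 37 °C, then stimulated with LPS (2.5 ng/mL final) for 4 h. Supernatant TNFα was quantified by HTRF (620/665 nm ratio) against a calibration curve. IC50 came from a 4-parameter logistic fit, with no-LPS set as 100% and no-compound as 0% suppression.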

human IRAK-4 = human IRAK-4 (Homo sapiens (Human), UniProt Q9NWZ3); test: Measurement of human IRAK-4 inhibitory activity (TR-FRET, peptide substrate phosphorylation, 10 μM ATP); type: biochemical; conditions: 1 nM IRAK-4, 10 μM ATP, 23° C., 30 minutes; average values
human IRAK-4, sequence (Q9NWZ3 whole entry): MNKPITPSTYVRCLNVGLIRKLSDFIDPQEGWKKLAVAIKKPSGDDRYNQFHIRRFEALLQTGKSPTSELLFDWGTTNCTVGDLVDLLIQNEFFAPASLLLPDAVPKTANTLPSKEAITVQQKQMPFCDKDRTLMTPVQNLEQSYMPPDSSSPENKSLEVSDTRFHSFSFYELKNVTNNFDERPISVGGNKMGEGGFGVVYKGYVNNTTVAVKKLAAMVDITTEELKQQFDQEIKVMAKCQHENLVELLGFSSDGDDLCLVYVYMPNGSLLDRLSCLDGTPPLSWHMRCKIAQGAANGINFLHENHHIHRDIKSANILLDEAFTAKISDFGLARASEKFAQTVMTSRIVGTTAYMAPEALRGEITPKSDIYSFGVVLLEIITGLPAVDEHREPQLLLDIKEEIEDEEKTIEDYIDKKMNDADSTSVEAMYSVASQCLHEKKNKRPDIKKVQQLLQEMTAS
Method in brief: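 With 1 nM IRAK-4, 0.5 μM biotinylated peptide and 10 μM ATP, compound incubated 30 min at 23 °C in 50 mM HEPES pH 7.2 with Mg2+/Mn2+. Stopped with EDTA plus europium-cryptate anti-phosphopeptide antibody and streptavidin-XL665, 60 min at 23 °C. Activity taken as the 665/620 nm TR-FRET ratio.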

Row | IC50 [1] [nM] | IC50 (human IRAK-4) [nM] | SMILES
1 | 21 | 1.4 | Cc1cc(C(=O)N2CCN([C@H]3C[C@@H](C(=O)Nc4nc5ccc(-c6cnc(CO[C@H]7CCC[C@@H]7O)nc6)cc5s4)C3)[C@@H](C)C2)ccn1 [b-04-02, (1R,3s)-N-(6-(2-((((1S,2S)-2-Hydroxycyclopentyl)oxy)methyl)pyrimidin-5-yl)benzo[d]thiazol-2-yl)-3-((S)-2-methyl-4-(2-methylisonicotinoyl)piperazin-1-yl)cyclobutane-1-carboxamide]
2 | 46 | 3.21 | C[C@H]1CN(C(=O)C23CC(C#N)(C2)C3)CCN1[C@H]1C[C@@H](C(=O)Nc2nc3ccc(-c4cnc(CO[C@H]5CCC[C@@H]5O)nc4)cc3s2)C1 [b-04-03]
3 | 49 | 2.69 | C[C@H]1CN(C(=O)CC2CCOCC2)CCN1[C@H]1C[C@@H](C(=O)Nc2nc3ccc(-c4cnc(CO[C@H]5CCC[C@@H]5O)nc4)cc3s2)C1 [b-04-04]
4 | 54 | 2.85 | C[C@H]1CN(C(=O)C2CCCO2)CCN1[C@H]1C[C@@H](C(=O)Nc2nc3ccc(-c4cnc(CO[C@H]5CCC[C@@H]5O)nc4)cc3s2)C1 (stereo partly shown) [b-04-05]
5 | 64 | 2.37 | COCCOCC(=O)N1CCN([C@H]2C[C@@H](C(=O)Nc3nc4ccc(-c5cnc(CO[C@H]6CCC[C@@H]6O)nc5)cc4s3)C2)[C@@H](C)C1 [b-04-06]
6 | 60 | 2.6 | C[C@H]1CN(C(=O)C2CCOC2)CCN1[C@H]1C[C@@H](C(=O)Nc2nc3ccc(-c4cnc(CO[C@H]5CCC[C@@H]5O)nc4)cc3s2)C1 (stereo partly shown) [b-04-07]
7 | 53 | 2.48 | CCOCC(=O)N1CCN([C@H]2C[C@@H](C(=O)Nc3nc4ccc(-c5cnc(CO[C@H]6CCC[C@@H]6O)nc5)cc4s3)C2)[C@@H](C)C1 [b-04-08]
8 | 55 | 2.58 | C[C@H]1CN(C(=O)C2CCOCC2)CCN1[C@H]1C[C@@H](C(=O)Nc2nc3ccc(-c4cnc(CO[C@H]5CCC[C@@H]5O)nc4)cc3s2)C1 [b-04-09]
9 | 30 | 3.94 | C[C@H]1CN(C(=O)C23CC(C2)C3)CCN1[C@H]1C[C@@H](C(=O)Nc2nc3ccc(-c4cnc(CO[C@H]5CCC[C@@H]5O)nc4)cc3s2)C1 [b-04-10]
10 | 30 | 1.11 | CC[C@H]1CN(C(=O)C2CCOC2)CCN1C1CC(C(=O)Nc2nc3ccc(-c4cnc(CO[C@H]5CCC[C@@H]5O)nc4)cc3s2)C1 (stereo partly shown) [b-04-18]
11 | 50 | 1.3 | C[C@H]1CN(C(=O)[C@@H]2CCOC2)CCN1[C@H]1C[C@@H](C(=O)Nc2nc3ccc(-c4cnc(CO[C@H]5CCC[C@@H]5O)nc4)cc3s2)C1 [b-04-22]
12 | 54 | 1.41 | C[C@H]1CN(C(=O)[C@H]2CCOC2)CCN1[C@H]1C[C@@H](C(=O)Nc2nc3ccc(-c4cnc(CO[C@H]5CCC[C@@H]5O)nc4)cc3s2)C1 [b-04-23]
13 | 72 | 1.58 | C[C@H]1CN(C(=O)c2ccnnc2)CCN1[C@H]1C[C@@H](C(=O)Nc2nc3ccc(-c4cnc(CO[C@H]5CCC[C@@H]5O)nc4)cc3s2)C1 [b-04-28]
14 | 55 | 1.6 | Cc1oncc1C(=O)N1CCN([C@H]2C[C@@H](C(=O)Nc3nc4ccc(-c5cnc(CO[C@H]6CCC[C@@H]6O)nc5)cc4s3)C2)[C@@H](C)C1 [b-04-29]
15 | 55 | 1.73 | C[C@H]1CN(C(=O)c2nccs2)CCN1[C@H]1C[C@@H](C(=O)Nc2nc3ccc(-c4cnc(CO[C@H]5CCC[C@@H]5O)nc4)cc3s2)C1 [b-04-31]
16 | 55 | 1.99 | C[C@H]1CN(C(=O)c2ccno2)CCN1[C@H]1C[C@@H](C(=O)Nc2nc3ccc(-c4cnc(CO[C@H]5CCC[C@@H]5O)nc4)cc3s2)C1 [b-04-33]
17 | 66 | 1.65 | C[C@H]1CN(C(=O)c2cnccn2)CCN1[C@H]1C[C@@H](C(=O)Nc2nc3ccc(-c4cnc(CO[C@H]5CCC[C@@H]5O)nc4)cc3s2)C1 [b-04-34]
18 | 48 | 0.9 | Cc1nc(C(=O)N2CCN([C@H]3C[C@@H](C(=O)Nc4nc5ccc(-c6cnc(CO[C@H]7CCC[C@@H]7O)nc6)cc5s4)C3)[C@@H](C)C2)co1 [b-04-36]
19 | 35 | 0.81 | C[C@H]1CN(C(=O)c2ccc(Cl)cn2)CCN1[C@H]1C[C@@H](C(=O)Nc2nc3ccc(-c4cnc(CO[C@H]5CCC[C@@H]5O)nc4)cc3s2)C1 [b-04-37]
20 | 87 | 0.85 | C[C@H]1CN(C(=O)c2cncnc2)CCN1[C@H]1C[C@@H](C(=O)Nc2nc3ccc(-c4cnc(CO[C@H]5CCC[C@@H]5O)nc4)cc3s2)C1 [b-04-38]
21 | 44 | 0.66 | C[C@H]1CN(C(=O)c2ccon2)CCN1[C@H]1C[C@@H](C(=O)Nc2nc3ccc(-c4cnc(CO[C@H]5CCC[C@@H]5O)nc4)cc3s2)C1 [b-04-39]

The remaining lines, values behind:

Row | SMILES | IC50 [1] [nM] | IC50 (human IRAK-4) [nM]
22 | C[C@H]1CN(C(=O)c2ccccn2)CCN1[C@H]1C[C@@H](C(=O)Nc2nc3ccc(-c4cnc(CO[C@H]5CCC[C@@H]5O)nc4)cc3s2)C1 [b-04-11] | 38 | 1.89
23 | C[C@H]1CN(C(=O)c2cccnc2)CCN1[C@H]1C[C@@H](C(=O)Nc2nc3ccc(-c4cnc(CO[C@H]5CCC[C@@H]5O)nc4)cc3s2)C1 [b-04-12] | 39 | 1.93
24 | C[C@H]1CN(C(=O)c2ccncc2)CCN1[C@H]1C[C@@H](C(=O)Nc2nc3ccc(-c4cnc(CO[C@H]5CCC[C@@H]5O)nc4)cc3s2)C1 [b-04-13] | 27 | 1.7
25 | C[C@H]1CN(C(=O)c2ccc(C(F)(F)F)cn2)CCN1[C@H]1C[C@@H](C(=O)Nc2nc3ccc(-c4cnc(CO[C@H]5CCC[C@@H]5O)nc4)cc3s2)C1 [b-04-14] | 25 | 1.5
26 | CC(C)[C@H]1CN(C(=O)c2ccccn2)CCN1C1CC(C(=O)Nc2nc3ccc(-c4cnc(CO[C@H]5CCC[C@@H]5O)nc4)cc3s2)C1 (stereo partly shown) [b-04-15] | 28 | 1.61
27 | CC[C@H]1CN(C(=O)c2ccccn2)CCN1C1CC(C(=O)Nc2nc3ccc(-c4cnc(CO[C@H]5CCC[C@@H]5O)nc4)cc3s2)C1 (stereo partly shown) [b-04-16] | 23 | 1.51
28 | CC(C)[C@H]1CN(C(=O)C2CCOC2)CCN1C1CC(C(=O)Nc2nc3ccc(-c4cnc(CO[C@H]5CCC[C@@H]5O)nc4)cc3s2)C1 (stereo partly shown) [b-04-17] | 22 | 1.58
29 | C[C@H]1CN(C(=O)c2cccc(C(F)(F)F)n2)CCN1[C@H]1C[C@@H](C(=O)Nc2nc3ccc(-c4cnc(CO[C@H]5CCC[C@@H]5O)nc4)cc3s2)C1 [b-04-19] | 39 | 1.38
30 | COc1cccc(C(=O)N2CCN([C@H]3C[C@@H](C(=O)Nc4nc5ccc(-c6cnc(CO[C@H]7CCC[C@@H]7O)nc6)cc5s4)C3)[C@@H](C)C2)n1 [b-04-20] | 39 | 1.12
31 | Cc1cccc(C(=O)N2CCN([C@H]3C[C@@H](C(=O)Nc4nc5ccc(-c6cnc(CO[C@H]7CCC[C@@H]7O)nc6)cc5s4)C3)[C@@H](C)C2)n1 [b-04-21] | 33 | 1.15
32 | CCCOCc1ncc(-c2ccc3nc(NC(=O)[C@H]4C[C@@H](N5CCN(C(=O)c6ccccn6)C[C@@H]5C)C4)sc3c2)cn1 [b-04-24] | 95 | 0.76
33 | CCCOCc1ncc(-c2ccc3nc(NC(=O)[C@H]4C[C@@H](N5CCN(C(=O)C6CCOC6)C[C@@H]5C)C4)sc3c2)cn1 (stereo partly shown) [b-04-25] | 71 | 0.88
34 | CCCOCc1ncc(-c2ccc3nc(NC(=O)[C@H]4C[C@@H](N5CCN(C(=O)c6ccc(C(F)(F)F)cn6)C[C@@H]5C)C4)sc3c2)cn1 [b-04-26] | 86 | 1.22
35 | Cc1noc(C)c1C(=O)N1CCN([C@H]2C[C@@H](C(=O)Nc3nc4ccc(-c5cnc(CO[C@H]6CCC[C@@H]6O)nc5)cc4s3)C2)[C@@H](C)C1 [b-04-27] | 108 | 1.6
36 | C[C@H]1CN(C(=O)c2cccnc2C(F)(F)F)CCN1[C@H]1C[C@@H](C(=O)Nc2nc3ccc(-c4cnc(CO[C@H]5CCC[C@@H]5O)nc4)cc3s2)C1 [b-04-30] | 62 | 1.49
37 | Cc1nc(C)c(C(=O)N2CCN([C@H]3C[C@@H](C(=O)Nc4nc5ccc(-c6cnc(CO[C@H]7CCC[C@@H]7O)nc6)cc5s4)C3)[C@@H](C)C2)s1 [b-04-32] | 50 | 1.57
38 | C[C@H]1CN(C(=O)c2ccnc(C(F)(F)F)c2)CCN1[C@H]1C[C@@H](C(=O)Nc2nc3ccc(-c4cnc(CO[C@H]5CCC[C@@H]5O)nc4)cc3s2)C1 [b-04-35] | 37 | 2.08
39 | Cc1cc(C(=O)N2CCN([C@H]3C[C@@H](C(=O)Nc4nc5ccc(-c6cnc(CO[C@H]7CCC[C@@H]7O)nc6)cc5s4)C3)[C@@H](C)C2)cc(C)n1 [b-04-40] | 25 | 0.89
40 | CCCOCc1ncc(-c2ccc3nc(NC(=O)[C@H]4C[C@@H](N5CCN(C(=O)c6cc(F)ccn6)C[C@@H]5C)C4)sc3c2)cn1 [b-04-41] | 76 | 0.69
41 | CCCOCc1ncc(-c2ccc3nc(NC(=O)[C@H]4C[C@@H](N5CCN(C(=O)c6cc(C)ccn6)C[C@@H]5C)C4)sc3c2)cn1 [b-04-42] | 64 | 0.49
42 | CCCOCc1ncc(-c2ccc3nc(NC(=O)[C@H]4C[C@@H](N5CCN(C(=O)c6ccncc6Cl)C[C@@H]5C)C4)sc3c2)cn1 [b-04-43] | 96 | 0.65
43 | Cc1ccc(C(=O)N2CCN([C@H]3C[C@@H](C(=O)Nc4nc5ccc(-c6cnc(CO[C@H]7CCC[C@@H]7O)nc6)cc5s4)C3)[C@@H](C)C2)cn1 [b-04-44] | 23 | 0.46
44 | COc1ccc(C(=O)N2CCN([C@H]3C[C@@H](C(=O)Nc4nc5ccc(-c6cnc(CO[C@H]7CCC[C@@H]7O)nc6)cc5s4)C3)[C@@H](C)C2)cn1 [b-04-45] | 15 | 0.66
